Measurements as given in patent EP4782453A1 (Beyang Therapeutics Co., Ltd., priority 2023, dated 2025).
Like-named read-outs stand apart in the source and are kept apart here.

Target: T1, Menin-MLL (Homo sapiens, UniProt O00255)
T1 construct: His-Menin (M1-L615 end); purchased BIORTUS BP9210
T1 sequence (O00255 1-615 isoform O00255-1): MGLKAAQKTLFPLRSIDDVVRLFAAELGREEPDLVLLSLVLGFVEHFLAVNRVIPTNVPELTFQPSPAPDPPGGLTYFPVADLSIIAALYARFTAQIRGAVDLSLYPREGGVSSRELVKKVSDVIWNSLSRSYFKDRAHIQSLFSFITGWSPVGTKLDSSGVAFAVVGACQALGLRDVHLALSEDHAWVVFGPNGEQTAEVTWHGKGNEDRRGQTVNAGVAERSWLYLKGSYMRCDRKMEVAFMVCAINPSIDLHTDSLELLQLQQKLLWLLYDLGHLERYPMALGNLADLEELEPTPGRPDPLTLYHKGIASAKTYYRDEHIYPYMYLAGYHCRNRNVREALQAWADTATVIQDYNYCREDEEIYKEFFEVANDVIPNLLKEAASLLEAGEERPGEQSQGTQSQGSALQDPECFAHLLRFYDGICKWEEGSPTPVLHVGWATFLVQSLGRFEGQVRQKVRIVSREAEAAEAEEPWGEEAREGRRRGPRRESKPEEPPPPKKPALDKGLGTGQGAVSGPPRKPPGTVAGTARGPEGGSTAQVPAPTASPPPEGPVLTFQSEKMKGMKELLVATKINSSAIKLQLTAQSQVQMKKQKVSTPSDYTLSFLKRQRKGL
Assay: Inhibitory activity against Menin-MLL binding (fluorescence polarization)
Settings: 150 nM His-Menin, 15 nM FITC-MLL, 25°C for 60 min
Procedure: • His-Menin (M1-L615 end), purchased from BIORTUS, Catalog Number: BP9210; and • FITC-MLL4-43, purchased from GenScript, Catalog Number: C491HFF190-3/PE1324.
In a 10 µL reaction solution (20 mM HEPES, pH 7.5, 50 mM NaCl, 1 mM DTT, 0.01% BSA) containing any compound from the examples, 150 nM His-Menin was added to a 384-well plate (Corning, Model: 4514). Each concentration was set up in duplicate wells. After centrifugation at 1000 RPM for 1 min, the plate was incubated at 25°C for 15 min. Then, 15 nM […] (20 mM HEPES, pH 7.5, 50 mM NaCl, 1 mM DTT, 0.01% BSA) was added to a 384-well plate. After centrifugation at 1000 RPM for 1 min, the reaction proceeded at 25°C for 60 min. Changes in fluorescence polarization were measured using a plate reader (PerkinElmer, Envision 2104). Based on the measured signals, the binding inhibition rate of the compound at each concentration was calculated, and the IC50 (half-maximal inhibitory concentration) of the compound was determined using statistical analysis software GraphPad Prism (GraphPad Software, Inc.) by means of a nonlinear fitting formula: 4-Parameter Logistic Model or Sigmoidal Dose-Response Model: Y = Bottom + (Top−Bottom)/(1 + 10^((LogIC50−X) × Hill Slope)), [formula] in which X indicates the logarithm of compound concentration, Y indicates a fluorescence polarization mP value, and Top and Bottom indicate the maximum and minimum readouts of fluorescence polarization mP values. Table 1: Inhibitory Activity of Compounds Against Menin-MLL Binding

[1] = Menin-MLL IC50, fluorescence polarization
[2] = fluorescence polarization, read-out: Menin-MLL IC50

IC50 [2]	SMILES	IC50 [1]
–	CCC(=O)N(c1cc(F)ccc1-c1cc(N2CCN(C(=O)C3NC4CCC3CC4)CC2)cn2c(C)ncc12)C(C)C [Example 77, N-[5-fluoro-2-(3-methyl-6-{4-[(1R,3S,4S)-2-azabicyclo[2.2.2]octan-3-carbonyl]piperazin-1-yl}imidazo[1,5-a]pyridin-8-yl)phenyl]-N-(isopropyl)propionamide]	100 nM
279 nM	CCN(C(=O)c1cc(F)ccc1-c1cc(C2(O)CN(C[C@H]3CC[C@H](NC(=O)OC(C)(C)C)CC3)C2)cc2c1cnn2C)C(C)C [Example 79, N-[(1r,4r)-4-{[3-(4-{2-[ethyl(isopropyl)aminoformyl]-4-fluorophenyl}-1-methyl-1H-indazol-6-yl)-3-hydroxylazacyclobutan-1-yl]methyl}cyclohexyl]tert-butyl carbamate]	–
122 nM	CCN(C(=O)c1cc(F)ccc1-c1cc(C2CCN(CC3CCC(NS(=O)(=O)CC)CC3)C2)cn2c(C)nnc12)C(C)C (stereo not shown) [Example 80, 2-(6-{1-[(4-ethanesulfonamidocyclohexyl)methyl]pyrrolidin-3-yl}-3-methyl-[1,2,4]triazolo[4,3-a]pyridin-8-yl)-N-ethyl-5-fluoro-N-(isopropyl)benzamide]	–
–	CCN(C(=O)c1cc(F)ccc1-c1cc(N2CCN(C(=O)[C@@H]3CCCCN3)CC2)cn2c(C)ncc12)C(C)C [Example 81]	188 nM
165 nM	CCN(C(=O)c1cc(F)ccc1-c1cc(N2CCN(C[C@H]3CC[C@H](NS(=O)(=O)CC)CC3)CC2)cn2c(C)ncc12)C(C)C [Example 84]	–
152 nM	COc1cc(-c2ccc(CCN3CCN(c4cc(-c5ccc(F)cc5C(=O)N5CCOC[C@H]5C)c5cnc(C)n5c4)CC3)cc2)nnc1OC [Example 86]	–
–	CCN(C(=O)c1cc(F)ccc1-c1cc(N2CCN(C(=O)[C@H]3N[C@@H]4CC[C@H]3C4)CC2)cn2c(C)ncc12)C(C)C [Example 88]	52 nM
–	CCN(C(=O)c1cc(F)ccc1-c1cc(N2CC3(CN(C[C@H]4CC[C@H](NS(=O)(=O)CC)CC4)C3)C2)cn2c(C)ncc12)C(C)C [Example 89, N-ethyl-5-fluoro-2-[3-methyl-6-(6-{[(1r,4r)-4-ethanesulfonamidocyclohexyl]methyl}-2,6-diazaspirocyclo[3.3]heptan-2-yl)imidazo[1,5-a]pyridin-8-yl]-N-(isopropyl)benzamide]	173 nM
46.5 nM	CCN(C(=O)c1cc(F)ccc1-c1cc(N2CCN(C(=O)[C@@H]3CCCN3)CC2)cn2c(C)ncc12)C(C)C [Example 92]	–
–	CCN(C(=O)c1cc(F)ccc1-c1cc(N2CCN(C(=O)C3NC4CCC3CC4)CC2)cn2c(C)nc(Cl)c12)C(C)C [Example 93, 2-(1-chloro-3-methyl-6-{4-[(1R,3S,4S)-2-azabicyclo[2.2.2]octan-3-carbonyl]piperazin-1-yl}imidazo[1,5-a]pyridin-8-yl)-N-ethyl-5-fluoro-N-(isopropyl)benzamide]	21 nM
–	Cc1ncc2c(-c3ccc(F)cc3C(=O)N(CC(F)F)C(C)C)cc(N3CCN(C(=O)C4NC5CCC4CC5)CC3)cn12 [Example 94, N-(2,2-difluoroethyl)-5-fluoro-2-(3-methyl-6-{4-[(1R,3S,4S)-2-azabicyclo[2.2.2]octan-3-carbonyl]piperazin-1-yl}imidazo[1,5-a]pyridin-8-yl)-N-(isopropyl)benzamide]	44.5 nM
–	CCN(C(=O)c1cc(F)ccc1-c1cc(C2CCN(C(=O)[C@@H]3CCCCN3)C2)cn2c(C)ncc12)C(C)C (stereo partly shown) [Example 97]	210 nM
45.5 nM	CCS(=O)(=O)NC1CCC(CN2CCC(c3cc(-c4ccc(F)cc4C(=O)N4CCC(F)(F)CC4C)c4cnn(C)c4c3)C2)CC1 (stereo not shown) [Example 101, N-{4-[(3-{4-[2-(4,4-difluoro-2-methylpiperidin-1-carbonyl)-4-fluorophenyl]-1-methyl-1H-indazol-6-yl}pyrrolidin-1-yl)methyl]cyclohexyl}ethan-1-sulfonamide]	–
70.5 nM	CCN(C(=O)c1cc(F)ccc1-c1cc(C2CCN(C[C@H]3C[C@H](NS(=O)(=O)CC)C3)C2)cn2c(C)ncc12)C(C)C (stereo partly shown) [Example 102]	–
70.5 nM	CCN(C(=O)c1cc(F)ccc1-c1cc(C2CCN(C[C@H]3C[C@@H](NS(=O)(=O)CC)C3)C2)cn2c(C)ncc12)C(C)C (stereo partly shown) [Example 103]	–
153 nM	CCN(C(=O)c1cc(F)ccc1-c1cc(N2CCN(C(=O)[C@H]3CCCN3)CC2)cn2c(C)ncc12)C(C)C [Example 106]	–

IC50 [2]	SMILES	IC50 [1]
–	CCN(C(=O)c1cc(F)ccc1-c1cc(C2CN(C(=O)C3NC4CCC3CC4)C2)cn2c(C)nc(F)c12)C(C)C [Example 107, N-ethyl-5-fluoro-2-(1-fluoro-3-methyl-6-{1-[(1R,3S,4S)-2-azabicyclo[2.2.2]octan-3-carbonyl]azacyclobutan-3-yl}imidazo[1,5-a]pyridin-8-yl)-N-(isopropyl)benzamide]	4.5 nM
–	CCN(C(=O)c1cc(F)ccc1-c1cc(C2CN(C(=O)C3NC4CCC3CC4)C2)cn2c(C)nc(Cl)c12)C(C)C [Example 108, 2-(1-chloro-3-methyl-6-{1-[(1R,3S,4S)-2-azabicyclo[2.2.2]octan-3-carbonyl]azacyclobutan-3-yl}imidazo[1,5-a]pyridin-8-yl)-N-ethyl-5-fluoro-N-(isopropyl)benzamide]	7.2 nM
96 nM	CCN(C(=O)c1cc(F)ccc1-c1cc(N2CCN(C(=O)[C@@H]3C[C@H](OC)CN3)CC2)cn2c(C)nc(Cl)c12)C(C)C [Example 109]	–
–	CCN(C(=O)c1cc(F)ccc1-c1cc(C2=CCN(C(=O)C3NC4CCC3CC4)CC2)n2ccncc12)C(C)C [Example 110, N-ethyl-5-fluoro-N-(isopropyl)-2-(6-{1-[(1R,3S,4S)-2-azabicyclo[2.2.2]octan-3-carbonyl]-1,2,3,6-tetrahydropyridin-4-yl}pyrrolo[1,2-a]pyrazin-8-yl)benzamide]	25 nM
–	CCN(C(=O)c1cc(F)ccc1-c1cc(N2CCN(C(=O)[C@@H]3CCC(C)(C)N3)CC2)cn2c(C)nc(Cl)c12)C(C)C [Example 111]	38 nM
24 nM	CCN(C(=O)c1cc(F)ccc1-c1cc(N2CCN(C(=O)[C@@H]3CC4CCCCC4N3)CC2)cn2c(C)nc(Cl)c12)C(C)C (stereo partly shown) [Example 112]	–
–	CCN(C(=O)c1cc(F)ccc1-c1cc(C2=CCN(C(=O)C3NC4CCC3CC4)CC2)c2ccncn12)C(C)C [Example 113, N-ethyl-5-fluoro-N-(isopropyl)-2-(5-{1-[(1R,3S,4S)-2-azabicyclo[2.2.2]octan-3-carbonyl]-1,2,3,6-tetrahydropyridin-4-yl}pyrrolo[1,2-c]pyrimidin-7-yl)benzamide]	201 nM
19 nM	CCN(C(=O)c1cc(F)ccc1-c1cc(N2CCN(C(=O)[C@@H]3CCCN3)CC2)cn2c(C)nc(Cl)c12)C(C)C [Example 114]	–
152 nM	CCN(C(=O)c1cc(F)ccc1-c1cc(N2CCN(C(=O)[C@@H]3CCCN3)CC2)c(Cl)n2c(C)ncc12)C(C)C [Example 115, 2-(5-chloro-3-methyl-6-{4-[(2S)-pyrrolidin-2-carbonyl]piperazin-1-yl}imidazo[1,5-a]pyridin-8-yl)-N-ethyl-5-fluoro-N-(isopropyl)benzamide]	–
52 nM	CCN(C(=O)c1cc(F)ccc1-c1cc(N2CCN(C(=O)[C@@H]3Cc4ccccc4CN3)CC2)cn2c(C)nc(Cl)c12)C(C)C [Example 116]	–
21 nM	C=C1CN[C@H](C(=O)N2CCN(c3cc(-c4ccc(F)cc4C(=O)N(CC)C(C)C)c4c(Cl)nc(C)n4c3)CC2)C1 [Example 117]	–
41 nM	Cc1ncc2c(-c3ccc(F)cc3C(=O)N(CC(F)F)C(C)C)cc(N3CCN(C(=O)[C@@H]4CCCN4)CC3)cn12 [Example 119]	–
217 nM	CCN(C(=O)c1cc(F)ccc1-c1cc(N2CCN(C(=O)C3NCCc4ccccc43)CC2)cn2c(C)nc(Cl)c12)C(C)C (stereo not shown) [Example 122]	–
80.5 nM	CCN(C(=O)c1cc(F)ccc1-c1cc(N2CCN(C(=O)[C@@H]3CCCNC3)CC2)cn2c(C)ncc12)C(C)C [Example 124]	–
–	CCN(C(=O)c1cc(F)ccc1-c1cc(C2CN(C(=O)[C@@H]3CCCN3)C2)cn2c(C)nc(Cl)c12)C(C)C [Example 125]	26.5 nM
